Where “and” joins values, the source holds several entries; their conditions need not be identical. Equal entries are not always repeated. Toxic doses and inconclusive results are not listed.
Tested on: BDF1 mice, M5076 sarcoma ip, median survival T/C
Assay: NCI In Vivo Anticancer Drug Screen. Data for tumor model Sarcoma M5076 (intraperitoneal) in B6D2F1 (BDF1) mice
Conditions: endpoint: median survival time, higher = longer survival
Experimental: The antitumor activity of compounds was measured in mice bearing transplantable tumors. Survival or tumor size were measured and the results are expressed as the measurement made in the treated group (T) divided by the measurement made in the vehicle treated control group (C). The tumor model used in this assay is Sarcoma M5076 (intraperitoneal) in B6D2F1 (BDF1) mice

[1] = dose: 25.0 mg/kg/injection, schedule: Q04DX004 (ip), vehicle: Klucel (hydroxypropylcellulose) (HPC)
[2] = dose: 50.0 mg/kg/injection, schedule: Q04DX004 (ip), vehicle: Klucel (hydroxypropylcellulose) (HPC)
[3] = dose: 100.0 mg/kg/injection, schedule: Q04DX004 (ip), vehicle: Klucel (hydroxypropylcellulose) (HPC)
[4] = dose: 100.0 mg/kg/injection, schedule: Q04DX004 (ip), vehicle: saline

## CCN(CC)CCCNc1nccc2c(C)c3[nH]c4ccncc4c3cc12
dose: 0.63 mg/kg/injection, schedule: Q04DX004 (ip), vehicle: other
  T/C: 152 % of control
dose: 1.25 mg/kg/injection, schedule: Q04DX004 (ip), vehicle: other
  T/C: 191 % of control
dose: 2.5 mg/kg/injection, schedule: Q04DX004 (ip), vehicle: other
  T/C: 179 % of control
dose: 5.0 mg/kg/injection, schedule: Q04DX004 (ip), vehicle: other
  T/C: 260 % of control
dose: 10.0 mg/kg/injection, schedule: Q04DX004 (ip), vehicle: other
  T/C: 208 % of control

## C=C1C(=O)O[C@H]2C1[C@H](OC(=O)/C(C)=C\C)CC(=C)[C@@H]1C(=O)[C@H]3O[C@@]3(C)[C@@]12O (stereo partly specified)
dose: 0.5 mg/kg/injection, schedule: Q01DX009 (ip), vehicle: saline + alcohol
  T/C: 107 % of control
dose: 1.0 mg/kg/injection, schedule: Q01DX009 (ip), vehicle: saline + alcohol
  T/C: 102 % of control
dose: 2.0 mg/kg/injection, schedule: Q01DX009 (ip), vehicle: saline + alcohol
  T/C: 104 % of control
dose: 5.0 mg/kg/injection, schedule: Q01DX009 (ip), vehicle: saline + alcohol
  T/C: 113 % of control

## O=C1C2C3C=CC(C2C(=O)N1CO)C1C2C(=O)N(CO)C(=O)C2C31 (stereo unspecified)
dose: 12.5 mg/kg/injection, schedule: Q04DX004 (ip), vehicle: water
  T/C: 106 % of control
dose: 25.0 mg/kg/injection, schedule: Q04DX004 (ip), vehicle: water
  T/C: 105 % of control
dose: 50.0 mg/kg/injection, schedule: Q04DX004 (ip), vehicle: water
  T/C: 106 % of control

## CSC1SCC2C(=O)N(C)C(C(C)C)C(=O)OCC(NC(=O)c3cnc4ccccc4n3)C(=O)NC(C)C(=O)N(C)C1C(=O)N(C)C(C(C)C)C(=O)OCC(NC(=O)c1cnc3ccccc3n1)C(=O)NC(C)C(=O)N2C (stereo unspecified)
dose: 25.0 micrograms/kg/injection, schedule: Q01DX009 (ip), vehicle: saline with Tween-80
  T/C: 157 % of control
dose: 50.0 micrograms/kg/injection, schedule: Q01DX009 (ip), vehicle: saline with Tween-80
  T/C: 177 % of control
dose: 100.0 micrograms/kg/injection, schedule: Q01DX009 (ip), vehicle: saline with Tween-80
  T/C: 201 % of control

## N#CC(C#N)=NNc1ccc2cn[nH]c2c1
dose: 12.5 mg/kg/injection, schedule: Q04DX004 (ip), vehicle: Klucel (hydroxypropylcellulose) (HPC)
  T/C: 105 % of control
[1]
  T/C: 95 % of control
[2]
  T/C: 90 % of control
[3]
  T/C: 103 % of control

## CC(=O)C[n+]1ccc(C)cc1Sc1ccccc1C
dose: 12.5 mg/kg/injection, schedule: Q04DX004 (ip), vehicle: saline with Tween-80
  T/C: 104 % of control
dose: 25.0 mg/kg/injection, schedule: Q04DX004 (ip), vehicle: saline with Tween-80
  T/C: 98 % of control
dose: 50.0 mg/kg/injection, schedule: Q04DX004 (ip), vehicle: saline with Tween-80
  T/C: 92 % of control
dose: 100.0 mg/kg/injection, schedule: Q04DX004 (ip), vehicle: saline with Tween-80
  T/C: 94 % of control

## COc1cc(NCc2ccc3nc(N)nc(N)c3c2C)cc(OC)c1OC
dose: 10.0 mg/kg/injection, schedule: Q01DX009 (ip), vehicle: Klucel (hydroxypropylcellulose) (HPC)
  T/C: 173 % of control
dose: 15.0 mg/kg/injection, schedule: Q04DX005 (ip), vehicle: Klucel (hydroxypropylcellulose) (HPC)
  T/C: 168 % of control
dose: 20.0 mg/kg/injection, schedule: Q01DX009 (ip), vehicle: Klucel (hydroxypropylcellulose) (HPC)
  T/C: 173 % of control
dose: 30.0 mg/kg/injection, schedule: Q04DX005 (ip), vehicle: Klucel (hydroxypropylcellulose) (HPC)
  T/C: 171 % of control
dose: 60.0 mg/kg/injection, schedule: Q04DX005 (ip), vehicle: Klucel (hydroxypropylcellulose) (HPC)
  T/C: 206 % of control

## C[C@@](O)(/C=C/[C@H]1CC=CC(=O)O1)[C@@H](C[C@@H](O)\C=C/C=C\C=C\CO)OP(=O)(O)O
dose: 1.0 mg/kg/injection, schedule: Q01DX009 (ip), vehicle: water
  T/C: 112 % of control
dose: 2.0 mg/kg/injection, schedule: Q01DX009 (ip), vehicle: water
  T/C: 106 % of control
dose: 4.0 mg/kg/injection, schedule: Q01DX009 (ip), vehicle: water
  T/C: 98 % of control
dose: 8.0 mg/kg/injection, schedule: Q01DX009 (ip), vehicle: water
  T/C: 120 % of control

## C=CCOc1cc2c(cc1C(C)c1ccc(OC)cc1)OCO2 (stereo unspecified)
[1]
  T/C: 104 % of control
[2]
  T/C: 118 % of control
[3]
  T/C: 102 % of control
dose: 200.0 mg/kg/injection, schedule: Q04DX004 (ip), vehicle: Klucel (hydroxypropylcellulose) (HPC)
  T/C: 118 % of control
dose: 400.0 mg/kg/injection, schedule: Q04DX004 (ip), vehicle: Klucel (hydroxypropylcellulose) (HPC)
  T/C: 214 % of control

## COC(=O)NC1C(C)OC(OC2C/C=C(/C)C3C=CC4C(OC5CC(OC6CCC(OC7CC(O)C(OC8CCC(O)C(C)O8)C(C)O7)C(C)O6)C(OC(C)=O)C(C)O5)C(C)CC(C)C4C3(C)/C(O)=C3/C(=O)OC4(CC(C=O)=CC(O)C4/C=C\2C)C3=O)CC1(C)[N+](=O)[O-] (stereo unspecified)
dose: 2.5 mg/kg/injection, schedule: Q04DX004 (ip), vehicle: water
  T/C: 107 % of control
dose: 5.0 mg/kg/injection, schedule: Q04DX004 (ip), vehicle: water
  T/C: 96 % of control
dose: 10.0 mg/kg/injection, schedule: Q04DX004 (ip), vehicle: water
  T/C: 103 % of control

## C[C@@]12C(=O)OC(=O)[C@]1(C)[C@H]1CC[C@@H]2O1
dose: 0.25 mg/kg/injection, schedule: Q01DX009 (ip), vehicle: acetone
  T/C: 115 % of control
dose: 0.5 mg/kg/injection, schedule: Q01DX009 (ip), vehicle: acetone
  T/C: 120 % of control
dose: 62.5 micrograms/kg/injection, schedule: Q01DX009 (ip), vehicle: acetone
  T/C: 113 % of control
dose: 250.0 micrograms/kg/injection, schedule: Q01DX009 (ip), vehicle: acetone
  T/C: 115 % of control
dose: 1000.0 micrograms/kg/injection, schedule: Q01DX009 (ip), vehicle: acetone
  T/C: 150 % of control

## Oc1cc(O)c(-c2c(O)cc(O)cc2O)c(O)c1 (tested in a mixture with another compound)
dose: 1.56 mg/kg/injection, schedule: Q01DX009 (ip), vehicle: saline
  T/C: 118 % of control
dose: 3.12 mg/kg/injection, schedule: Q01DX009 (ip), vehicle: saline
  T/C: 122 % of control
dose: 3.75 mg/kg/injection, schedule: Q01DX009 (ip), vehicle: saline
  T/C: 119 % of control
dose: 6.25 mg/kg/injection, schedule: Q01DX009 (ip), vehicle: saline
  T/C: 118 % of control
dose: 12.5 mg/kg/injection, schedule: Q01DX009 (ip), vehicle: saline
  T/C: 123 % of control
dose: 15.0 mg/kg/injection, schedule: Q01DX009 (ip), vehicle: saline
  T/C: 123 % of control

## O=c1[nH]cc(F)c(=O)[nH]1
dose: 6.25 mg/kg/injection, schedule: Q04DX005 (ip), vehicle: saline
  T/C: 185 % of control
dose: 16.0 mg/kg/injection, schedule: Q01DX009 (ip), vehicle: saline
  T/C: 117 % of control
dose: 21.6 mg/kg/injection, schedule: Q04DX004 (ip), vehicle: saline
  T/C: 123 % of control
dose: 50.0 mg/kg/injection, schedule: Q04DX005 (ip), vehicle: saline
  T/C: 112 % of control
[4]
  T/C: 154 % of control
dose: 100.0 mg/kg/injection, schedule: Q04DX005 (ip), vehicle: saline
  T/C: 176 % of control

## Cc1c2ccncc2c(C)c2c1[nH]c1ccccc12
dose: 40.0 mg/kg/injection, schedule: Q04DX004 (ip), vehicle: saline with Tween-80
  T/C: 170 % of control
dose: 80.0 mg/kg/injection, schedule: Q04DX004 (ip), vehicle: saline with Tween-80
  T/C: 191 % of control

## CC1CCC(NC(=O)N(CCCl)N=O)CC1 (stereo unspecified)
dose: 3.0 mg/kg/injection, schedule: Q04DX004 (ip), vehicle: Klucel (hydroxypropylcellulose) (HPC)
  T/C: 216 % of control and 163 % of control
dose: 6.0 mg/kg/injection, schedule: Q04DX004 (ip), vehicle: Klucel (hydroxypropylcellulose) (HPC)
  T/C: 189 % of control and 193 % of control and 216 % of control
dose: 12.0 mg/kg/injection, schedule: Q04DX004 (ip), vehicle: Klucel (hydroxypropylcellulose) (HPC)
  T/C: 216 % of control and 233 % of control and 320 % of control

## C1CCC(NC2CCCCC2)CC1
dose: 25.0 mg/kg/injection, schedule: Q04DX004 (ip), vehicle: saline
  T/C: 102 % of control
dose: 50.0 mg/kg/injection, schedule: Q04DX004 (ip), vehicle: saline
  T/C: 98 % of control
[4]
  T/C: 100 % of control
dose: 200.0 mg/kg/injection, schedule: Q04DX004 (ip), vehicle: saline
  T/C: 105 % of control
dose: 400.0 mg/kg/injection, schedule: Q04DX004 (ip), vehicle: saline
  T/C: 105 % of control

## O=P1(N(CCCl)CCCl)NCCCO1 (stereo unspecified)
dose: 10.0 mg/kg/injection, schedule: Q04DX005 (ip), vehicle: saline
  T/C: 180 % of control

## Nc1n[nH]c2ccccc12
dose: 50.0 mg/kg/injection, schedule: Q04DX004 (ip), vehicle: acid diluted with saline
  T/C: 112 % of control
dose: 100.0 mg/kg/injection, schedule: Q04DX004 (ip), vehicle: acid diluted with saline
  T/C: 113 % of control
dose: 200.0 mg/kg/injection, schedule: Q04DX004 (ip), vehicle: acid diluted with saline
  T/C: 112 % of control

From PubChem BioAssay AID286 (DTP/NCI, 2004)
